Molecules are shown by their SMILES.

In data set [1] the test system is rabbit. The following applies: Prenatal developmental toxicity study, Oral, Gavage/Intubation, dose end: 19 GD, group: maternal.
Data set [2] deals with rat. The following applies: Sub-acute repeat dose toxicity; wistar; Injection; Intravenous; dose end: 14 day; group: systemic; systemic / in life observation / clinical signs / skin discoloration + systemic / pathology microscopic / skin / inflammation + systemic / ….
Data set [3] has as its system rat. The note with it: Fertility (Segment I); Oral; Gavage/Intubation; dose end: 1 generation; group: parental; systemic / in life observation / body weight / body weight gain + systemic / in life observation / food consumption / food consumption.
The test system of data set [4] is primate. The note with it: Chronic toxicity, Oral, Gavage/Intubation, dose end: 182 day, group: systemic.
The test system of data set [5] is primate. The note with it: Sub-acute repeat dose toxicity, Injection, Intravenous, dose end: 14 day, group: systemic.
Data set [6] has as its system rat. The note with it: Sub-acute repeat dose toxicity, wistar, Oral, Feed, dose end: 14 day, group: systemic.
Data set [7] concerns rat. The note with it: Sub-acute repeat dose toxicity, wistar, Oral, Gavage/Intubation, dose end: 14 day, group: systemic.
The subject of data set [8] is mouse. The following applies: Chronic toxicity, cd1, Oral, Feed, dose end: 109 week, group: systemic.
The subject of data set [9] is mouse. The following applies: Subchronic oral toxicity in rodents, b6c3f1, Gavage/Intubation, dose end: 13 week, group: systemic.
In data set [10] the test system is rat. The note with it: Sub-acute repeat dose toxicity; fischer; Oral; Gavage/Intubation; dose end: 16 day; group: systemic; systemic / in life observation / clinical signs / altered breathing rate + systemic / in life observation / clinical signs / ataxia + ….
Data set [11] has as its system mouse. The note with it: Carcinogenicity, b6c3f1, Oral, Gavage/Intubation, dose end: 103 week, group: systemic.
In data set [12] the test system is mouse. The note with it: Sub-acute repeat dose toxicity; b6c3f1; Oral; Gavage/Intubation; dose end: 16 day; group: systemic; systemic / in life observation / clinical signs / altered breathing rate + systemic / in life observation / clinical signs / ataxia + ….
The subject of data set [13] is rat. The note with it: Chronic toxicity, sprague dawley, Oral, Feed, dose end: 110 week.
The subject of data set [14] is rat. The following applies: Subchronic oral toxicity in rodents, fischer, Gavage/Intubation, dose end: 13 week, group: systemic.
Data set [15] concerns rat. The following applies: Carcinogenicity; fischer; Oral; Gavage/Intubation; dose end: 103 week; group: systemic; systemic / pathology microscopic / kidney / nephropathy + systemic / pathology microscopic / liver / degeneration + systemic / pathology ….
The subject of data set [16] is rat. The note with it: Multigenerational reproductive toxicity study, other, Oral, Feed, dose end: 3 generation, group: parental.
Setting [17] is: reproductive / reproductive performance / aborted / aborted + systemic / in life observation / body weight / body weight + systemic / in ….
The mark [18] stands for this setting: systemic / clinical chemistry / protein / protein + systemic / hematology / red blood cell distribution width (rdw) / red blood cell ….
Where [19] appears, read: systemic / pathology gross / lymph node / enlarged + systemic / in life observation / clinical signs / salivation + systemic / in life ….
Setting [20] is: systemic / clinical chemistry / albumin / albumin + systemic / clinical chemistry / globulins / globulins + systemic / clinical chemistry / ….
Setting [21] is: systemic / hematology / hematocrit (hct) / hematocrit (hct) + systemic / in life observation / body weight / body weight + systemic / in ….
Setting [22] is: systemic / hematology / [other] / [other] + systemic / hematology / erythrocyte (rbc) count differential / erythrocyte (rbc) + systemic / ….
[23] abbreviates: systemic / hematology / erythrocyte (rbc) count differential / erythrocyte (rbc) + systemic / hematology / hematocrit (hct) / hematocrit (….
Setting [24] is: systemic / hematology / hematocrit (hct) / hematocrit (hct) + systemic / hematology / hemoglobin (hgb) / hemoglobin (hgb) + systemic / ….
Setting [25] is: systemic / in life observation / body weight / body weight gain.
The mark [26] stands for this setting: systemic / organ weight / liver / nos.
The mark [27] stands for this setting: systemic / organ weight / liver / absolute + systemic / organ weight / liver / relative to body weight + systemic / pathology microscopic / ….
[28] abbreviates: systemic / pathology microscopic / liver / eosinophilic focus + systemic / pathology microscopic / liver / syncytial alteration.
Where [29] appears, read: systemic / pathology microscopic / liver / eosinophilic focus + systemic / pathology microscopic / liver / syncytial alteration + systemic….
[30] abbreviates: group: cholinesterase, cholinesterase / cholinesterase / cholinesterase / plasma cholinesterase (che).
[31] abbreviates: group: systemic, systemic / clinical chemistry / cholesterol / cholesterol.
[32] abbreviates: group: systemic, systemic / clinical chemistry / cholesterol / cholesterol + systemic / clinical chemistry / glucose / glucose + systemic / clinical ….
The mark [33] stands for this setting: systemic / in life observation / mortality / mortality + systemic / pathology microscopic / liver / hypertrophy + systemic / pathology ….

In the case of `CCC(C)C(NC(=O)c1ccccc1SSc1ccccc1C(=O)NC(C(=O)O)C(C)CC)C(=O)O` (stereo not drawn) [CI-1012], the LOAEL in data set [1] (setting [17]) was above 250 mg/kg/day; in data set [2] it was above 100 mg/kg/day; in [3] it was above 500 mg/kg/day; in data set [4] (setting [18]), above 250 mg/kg/day; in data set [5] (setting [21]) it was above 125 mg/kg/day; in data set [6] (setting [22]), above 1500 mg/kg/day. The LOAEL in [7] (setting [24]) was above 1500 mg/kg/day. Moreover, the NEL in data set [1] (setting [17]) was 25 mg/kg/day; in data set [2], below 25 mg/kg/day; in [3], 50 mg/kg/day; in data set [4] (setting [19]) it was below 50 mg/kg/day; in data set [5] (setting [20]), 25 mg/kg/day; in [6] (setting [23]) it was 100 mg/kg/day. The NEL in data set [7] (setting [24]) amounted to 100 mg/kg/day. Further, the NOAEL was at least 250 mg/kg/day in [1] (setting [17]); at least 100 mg/kg/day in data set [2]; at least 500 mg/kg/day in data set [3]; at least 250 mg/kg/day in [4] (setting [18]); at least 125 mg/kg/day in [5] (setting [21]); at least 1500 mg/kg/day in data set [6] (setting [22]). The NOAEL in [7] (setting [24]) was at least 1500 mg/kg/day. The LEL is 100 mg/kg/day in data set [1] (reproductive / reproductive performance / aborted / aborted + systemic / in life observation / body weight / body weight gain + systemic / …); 25 mg/kg/day in [2]; 100 mg/kg/day in data set [3]; 50 mg/kg/day in data set [4] (setting [19]); 75 mg/kg/day in data set [5] (setting [20]); 250 mg/kg/day in data set [6] (setting [23]). The LEL in [7] (systemic / organ weight / spleen / absolute + systemic / pathology microscopic / stomach / hyperplasia) stood at 250 mg/kg/day.
Consider `O=c1ccc2ccccc2o1` [Coumarin], for which the LEL in [8] (setting [25]) is 85.8 mg/kg/day; in [9] (systemic / hematology / mean corpuscular (cell) volume (mcv) / mean corpuscular (cell) volume (mcv) + systemic / hematology / mean …), 38 mg/kg/day; in data set [10], 400 mg/kg/day; in data set [11] (setting [29]), 50 mg/kg/day; in [12], 300 mg/kg/day; in [13] (setting [30]) it was 16 mg/kg/day. Further, the results for the LEL in data set [13] (setting [31]), in data set [14] (systemic / hematology / erythrocyte (rbc) count differential / erythrocyte (rbc) + systemic / hematology / mean corpuscular (cell) volume (…) and in data set [15] were 13 mg/kg/day, 75 mg/kg/day and 25 mg/kg/day, respectively. For the same molecule, the NEL is 26.2 mg/kg/day in [8] (systemic / in life observation / body weight / body weight gain + systemic / in life observation / food consumption / food efficiency); 19 mg/kg/day in [9] (systemic / in life observation / body weight / body weight + systemic / in life observation / body weight / body weight gain + systemic / …); 200 mg/kg/day in data set [10]; below 50 mg/kg/day in data set [11] (setting [29]); 150 mg/kg/day in [12]; below 16 mg/kg/day in [13] (setting [30]). Further, the NEL is below 13 mg/kg/day in data set [13] (setting [31]), 38 mg/kg/day in data set [14] (setting [27]) and below 25 mg/kg/day in data set [15]. The LOAEL in data set [8] (setting [26]) was above 271 mg/kg/day; in data set [9] (setting [27]), 300 mg/kg/day; in data set [10], above 400 mg/kg/day; in data set [11] (setting [28]), 50 mg/kg/day; in [12] it was 300 mg/kg/day; in data set [13] (setting [30]), above 283 mg/kg/day. The results for the LOAEL in data set [13] (setting [32]), in [14] (setting [27]) and in data set [15] were above 234 mg/kg/day, 150 mg/kg/day and 25 mg/kg/day, respectively. The NOAEL in data set [8] (setting [26]) is at least 271 mg/kg/day; in [9] (setting [27]), 150 mg/kg/day; in data set [10], at least 400 mg/kg/day; in data set [11] (setting [28]), below 50 mg/kg/day; in data set [12], 150 mg/kg/day; in [13] (setting [30]), at least 283 mg/kg/day. Moreover, the no-observed-adverse-effect level (NOAEL) in [13] (setting [32]) is at least 234 mg/kg/day; in [14] (setting [27]), 75 mg/kg/day; in data set [15], below 25 mg/kg/day.
`ClC1C(Cl)C(Cl)C(Cl)C(Cl)C1Cl` (stereo not drawn) [beta-Hexachlorocyclohexane]: in data set [16] (setting [25]), the LEL worked out at 6.25 mg/kg/day and the NEL is below 6.25 mg/kg/day. Also, in data set [16] (setting [33]), the LOAEL is above 12.5 mg/kg/day and the NOAEL was at least 12.5 mg/kg/day.

One may read the LOAEL as the lowest dose or exposure tested at which an adverse effect was seen. As a reminder, the NOAEL is the highest tested level that showed no adverse finding.
